Measured values reported in publication PMC12796986 (Journal of medicinal chemistry, 2025).

biological target: mpox resolvase (Mpr) (Monkeypox virus, UniProt A0A7H0DNC1); test: biochemical; format: biochemical; conditions: not given
Sequence (A0A7H0DNC1 whole entry, looked up): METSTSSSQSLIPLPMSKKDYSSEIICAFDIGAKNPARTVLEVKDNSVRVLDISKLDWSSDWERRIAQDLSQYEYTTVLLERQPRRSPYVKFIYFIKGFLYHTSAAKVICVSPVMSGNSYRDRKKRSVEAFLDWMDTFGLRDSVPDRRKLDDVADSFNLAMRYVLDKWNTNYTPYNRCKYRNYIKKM

With “3-(5,8-dihydroxy-7-oxo-6-phenyl-7,8-dihydro-1,8-naphthyridin-3-yl) benzamide [4a-12]” the “fluorescence quenching in the FRET assay” value was “fluorescence quenching”.
For O=c1c(-c2ccccc2)c(O)c2cc(-c3ccc(F)cc3F)cnc2n1O [4a-22, 6-(2,4-difluorophenyl)-1,4-dihydroxy-3-phenyl-1,8-naphthyridin-2(1H)-one], the “fluorescence quenching in the FRET assay” value was “fluorescence quenching”.
O=c1c(-c2ccccc2)c(O)c2cc(-c3c(F)cc(F)cc3F)cnc2n1O [4a-24, 1,4-dihydroxy-3-phenyl-6-(2,4,6-trifluorophenyl)-1,8-naphthyridin-2(1H)-one] was tested, and the “fluorescence quenching in the FRET assay” value was “fluorescence quenching”.
With CC(=O)c1ccc(-c2cnc3c(c2)c(O)c(-c2ccccc2)c(=O)n3O)s1 [4a-28, 6-(5-acetylthiophen-2-yl)-1,4-dihydroxy-3-phenyl-1,8-naphthyridin-2(1H)-one] the “fluorescence quenching in the FRET assay” value was “fluorescence quenching”.
With O=c1cc(O)c2cc(-c3ccc(-c4ccccc4)cc3)cnc2n1O [4c-2, 6-([1,1’-biphenyl]-4-yl)-1,4-dihydroxy-1,8-naphthyridin-2(1H)-one] the “fluorescence quenching in the FRET assay” value was “direct quenching of fluorophore”.
With O=c1cc(O)c2cc(-c3ccc(Oc4ccccc4)cc3)cnc2n1O [4c-3, 1,4-dihydroxy-6-(4-phenoxyphenyl)-1,8-naphthyridin-2(1H)-one] the “fluorescence quenching in the FRET assay” value was “direct quenching of fluorophore”.
With CSc1ccc(-c2cnc3c(c2)c(O)cc(=O)n3O)cc1 [4c-8, 1,4-dihydroxy-6-(4-(methylthio)phenyl)-1,8-naphthyridin-2(1H)-one] the “fluorescence quenching in the FRET assay” value was “direct quenching of fluorophore”.
For O=c1cc(O)c2cc(-c3ccsc3)cnc2n1O [4c-11, 1,4-dihydroxy-6-(thiophen-3-yl)-1,8-naphthyridin-2(1H)-one], the “fluorescence quenching in the FRET assay” value was “direct quenching of fluorophore”.
In the case of Cc1ccc(-c2cnc3c(c2)c(O)cc(=O)n3O)cc1F [4c-13, 6-(3-fluoro-4-methylphenyl)-1,4-dihydroxy-1,8-naphthyridin-2(1H)-one], the “fluorescence quenching in the FRET assay” value is reported as “direct quenching of fluorophore”.

Going from O=c1c(-c2ccccc2)c(O)c2cc(-c3ccc(-c4ccccc4)cc3)cnc2n1O [4a-2, 6-([1,1’-biphenyl]-4-yl)-1,4-dihydroxy-3-phenyl-1,8-naphthyridin-2(1H)-one] to Cc1ccc(-c2cnc3c(c2)c(O)c(-c2ccccc2)c(=O)n3O)cc1 [4a-16, 1,4-dihydroxy-3-phenyl-6-(p-tolyl)-1,8-naphthyridin-2(1H)-one], the IC50 rises from 250 ± 10 nM to 1900 ± 400 nM (7.6-fold). The first is the more potent here.

COc1ccc2cc(-c3cnc4c(c3)c(O)c(-c3ccccc3)c(=O)n4O)ccc2c1 [4a-4, 1,4-dihydroxy-6-(6-methoxynaphthalen-2-yl)-3-phenyl-1,8-naphthyridin-2(1H)-one] and COc1ccc(OC)c(-c2cnc3c(c2)c(O)c(-c2ccccc2)c(=O)n3O)c1 [4a-9, 6-(2,5-dimethoxyphenyl)-1,4-dihydroxy-3-phenyl-1,8-naphthyridin-2(1H)-one] are within 1.5-fold of each other in IC50: 970 ± 30 nM for the first, 1400 ± 100 nM for the second.

Compared with O=c1c(-c2ccccc2)c(O)c2cc(-c3ccccc3F)cnc2n1O [4a-6, 6-(2-fluorophenyl)-1,4-dihydroxy-3-phenyl-1,8-naphthyridin-2(1H)-one], CSc1cccc(-c2cnc3c(c2)c(O)c(-c2ccccc2)c(=O)n3O)c1 [4a-17, 1,4-dihydroxy-6-(3-(methylthio)phenyl)-3-phenyl-1,8-naphthyridin-2(1H)-one] is 1.8-fold lower in IC50: 1100 ± 100 nM for the first, 600 ± 100 nM for the second.

Going from O=c1c(-c2ccccc2)c(O)c2cc(-c3ccc(C(F)(F)F)cc3)cnc2n1O [4a-7, 1,4-dihydroxy-3-phenyl-6-(4-(trifluoromethyl)phenyl)-1,8-naphthyridin-2(1H)-one] to O=c1c(-c2ccccc2)c(O)c2cc(-c3ccc(O)cc3)cnc2n1O [4a-15, 1,4-dihydroxy-6-(4-hydroxyphenyl)-3-phenyl-1,8-naphthyridin-2(1H)-one], the IC50 rises from 600 ± 100 nM to 1500 ± 100 nM (2.5-fold). The first is the more potent here.

Going from CSc1ccc(-c2cnc3c(c2)c(O)c(-c2ccccc2)c(=O)n3O)cc1 [4a-8, 1,4-dihydroxy-6-(4-(methylthio)phenyl)-3-phenyl-1,8-naphthyridin-2(1H)-one] to N#Cc1ccc(-c2cnc3c(c2)c(O)c(-c2ccccc2)c(=O)n3O)cc1 [4a-20, 4-(5,8-dihydroxy-7-oxo-6-phenyl-7,8-dihydro-1,8-naphthyridin-3-yl) benzonitrile], the IC50 rises from 370 ± 30 nM to 1900 ± 200 nM (5.1-fold). The first is the more potent here.

Compared with O=c1c(-c2ccccc2)c(O)c2cc(-c3ccsc3)cnc2n1O [4a-11, 1,4-dihydroxy-3-phenyl-6-(thiophen-3-yl)-1,8-naphthyridin-2(1H)-one], O=c1c(-c2ccccc2)c(O)c2cc(-c3cccnc3)cnc2n1O [4a-25, 1,4-dihydroxy-3-phenyl-6-(pyridin-3-yl)-1,8-naphthyridin-2(1H)-one] is 9.2-fold higher in IC50: 1300 ± 300 nM for the first, 12000 ± 1000 nM for the second. The first is the more potent here.

O=c1c(-c2ccccc2)c(O)c2cc(Br)cnc2n1O [4a-14, 6-bromo-1,4-dihydroxy-3-phenyl-1,8-naphthyridin-2(1H)-one] and O=c1c(-c2ccccc2)c(O)c2cc(C3CC3)cnc2n1O [4a-30, 6-cyclopropyl-1,4-dihydroxy-3-phenyl-1,8-naphthyridin-2(1H)-one] are within error of each other in IC50: 7600 ± 100 nM for the first, 8000 ± 1000 nM for the second.

First: O=c1c(-c2ccccc2)c(O)c2cc(-c3ccc4c(c3)OCO4)cnc2n1O [4a-19, 6-(benzo[d][1,3]dioxol-5-yl)-1,4-dihydroxy-3-phenyl-1,8-naphthyridin-2(1H)-one]
Second: O=c1c(-c2ccccc2)c(O)c2cc(-c3ccco3)cnc2n1O [4a-27, 6-(furan-2-yl)-1,4-dihydroxy-3-phenyl-1,8-naphthyridin-2(1H)-one]
The IC50 of the first is 3.6-fold lower: 1100 ± 100 nM for the first, 4000 ± 200 nM for the second. The first is the more potent here.

Compared with NS(=O)(=O)c1ccc(-c2cnc3c(c2)c(O)c(-c2ccccc2)c(=O)n3O)cc1 [4a-21, 4-(5,8-dihydroxy-7-oxo-6-phenyl-7,8-dihydro-1,8-naphthyridin-3-yl)benzenesulfonamide], O=c1c(-c2ccccc2)c(O)c2cc(-c3cncnc3)cnc2n1O [4a-26, 1,4-dihydroxy-3-phenyl-6-(pyrimidin-5-yl)-1,8-naphthyridin-2(1H)-one] is 10-fold higher in IC50: 1500 ± 100 nM for the first, 15000 ± 1000 nM for the second.

O=c1c(-c2ccccc2)c(O)c2cc(-c3ccc(C(F)(F)F)cc3C(F)(F)F)cnc2n1O [4a-23, 6-(2,4-bis(trifluoromethyl)phenyl)-1,4-dihydroxy-3-phenyl-1,8-naphthyridin-2(1H)-one] and CCc1c(O)c2cc(-c3ccc(C(F)(F)F)cc3)cnc2n(O)c1=O [4b-7, 3-ethyl-1,4-dihydroxy-6-(4-(trifluoromethyl)phenyl)-1,8-naphthyridin-2(1H)-one] are within error of each other in IC50: 2700 ± 400 nM for the first, 2500 ± 100 nM for the second.

Compared with O=c1c(-c2ccccc2)c(O)c2cccnc2n1O [4a-31, 1,4-dihydroxy-3-phenyl-1,8-naphthyridin-2(1H)-one], CCc1c(O)c2cc(-c3ccccc3)cnc2n(O)c1=O [4b-5, 3-ethyl-1,4-dihydroxy-6-phenyl-1,8-naphthyridin-2(1H)-one] is 3.2-fold lower in IC50: 17000 ± 1000 nM for the first, 5300 ± 200 nM for the second.

First: CCc1c(O)c2cc(-c3cccc(-c4ccccc4)c3)cnc2n(O)c1=O [4b-1, 6-([1,1’-biphenyl]-3-yl)-3-ethyl-1,4-dihydroxy-1,8-naphthyridin-2(1H)-one]
Second: O=c1cc(O)c2cc(-c3cccc(-c4ccccc4)c3)cnc2n1O [4c-1, 6-([1,1’-biphenyl]-3-yl)-1,4-dihydroxy-1,8-naphthyridin-2(1H)-one]
The IC50 of the first is 6.7-fold higher: 800 ± 30 nM for the first, 120 ± 10 nM for the second. The second is the more potent here.

Going from CCc1c(O)c2cc(-c3ccc4cc(OC)ccc4c3)cnc2n(O)c1=O [4b-4, 3-ethyl-1,4-dihydroxy-6-(6-methoxynaphthalen-2-yl)-1,8-naphthyridin-2(1H)-one] to COc1ccc2cc(-c3cnc4c(c3)c(O)cc(=O)n4O)ccc2c1 [4c-4, 1,4-dihydroxy-6-(6-methoxynaphthalen-2-yl)-1,8-naphthyridin-2(1H)-one], the IC50 falls from 1600 ± 300 nM to 240 ± 30 nM (6.7-fold).

First: CCc1c(O)c2cc(-c3ccccc3F)cnc2n(O)c1=O [4b-6, 3-ethyl-6-(2-fluorophenyl)-1,4-dihydroxy-1,8-naphthyridin-2(1H)-one]
Second: O=c1cc(O)c2cc(-c3ccccc3F)cnc2n1O [4c-6, 6-(2-fluorophenyl)-1,4-dihydroxy-1,8-naphthyridin-2(1H)-one]
The IC50 of the first is 2.1-fold higher: 2100 ± 900 nM for the first, 1000 ± 100 nM for the second. The second is the more potent here.

Compared with CCc1c(O)c2cc(-c3ccc(SC)cc3)cnc2n(O)c1=O [4b-8, 3-ethyl-1,4-dihydroxy-6-(4-(methylthio)phenyl)-1,8-naphthyridin-2(1H)-one], CCc1c(O)c2cc(-c3ccc(OC)c(F)c3)cnc2n(O)c1=O [4b-10, 3-ethyl-6-(3-fluoro-4-methoxyphenyl)-1,4-dihydroxy-1,8-naphthyridin-2(1H)-one] is 7.1-fold higher in IC50: 700 ± 100 nM for the first, 5000 ± 1000 nM for the second.

CCc1c(O)c2cc(-c3cc(OC)ccc3OC)cnc2n(O)c1=O [4b-9, 6-(2,5-dimethoxyphenyl)-3-ethyl-1,4-dihydroxy-1,8-naphthyridin-2(1H)-one] and COc1ccc(OC)c(-c2cnc3c(c2)c(O)cc(=O)n3O)c1 [4c-9, 6-(2,5-dimethoxyphenyl)-1,4-dihydroxy-1,8-naphthyridin-2(1H)-one] are within error of each other in IC50: 1500 ± 100 nM for the first, 1600 ± 100 nM for the second.

First: CCc1c(O)c2cc(-c3ccsc3)cnc2n(O)c1=O [4b-11, 3-ethyl-1,4-dihydroxy-6-(thiophen-3-yl)-1,8-naphthyridin-2(1H)-one]
Second: O=c1cc(O)c2cc(-c3ccccc3)cnc2n1O [4c-5, 1,4-dihydroxy-6-phenyl-1,8-naphthyridin-2(1H)-one]
The IC50 of the first is 2.2-fold higher: 3900 ± 100 nM for the first, 1800 ± 10 nM for the second.

Going from O=c1cc(O)c2cc(-c3ccc(C(F)(F)F)cc3)cnc2n1O [4c-7, 1,4-dihydroxy-6-(4-(trifluoromethyl)phenyl)-1,8-naphthyridin-2(1H)-one] to COc1ccc(-c2cnc3c(c2)c(O)cc(=O)n3O)cc1F [4c-10, 6-(3-fluoro-4-methoxyphenyl)-1,4-dihydroxy-1,8-naphthyridin-2(1H)-one], the IC50 rises from 470 ± 50 nM to 2500 ± 500 nM (5.3-fold).

O=c1cc(O)c2cc(Br)cnc2n1O [4c-14, 6-bromo-1,4-dihydroxy-1,8-naphthyridin-2(1H)-one] showed an IC50 of 9000 ± 1000 nM.

With O=c1c(-c2ccccc2)c(O)c2cc(-c3cnc4ccccc4c3)cnc2n1O [4a-29, 1,4-dihydroxy-3-phenyl-6-(quinolin-3-yl)-1,8-naphthyridin-2(1H)-one] the “Mpr inhibition” value was “did not inhibit Mpr”.

same assay, conditions: read-out: Mpr IC50

In the case of NC(=O)c1cccc(-c2cnc3c(c2)c(O)cc(=O)n3O)c1 [4c-12, 3-(5,8-dihydroxy-7-oxo-7,8-dihydro-1,8-naphthyridin-3-yl) benzamide], the IC50 is reported as 15000 ± 2000 nM.
